Each structure is given as a SMILES string.

Our source for the EC50 values is US20250221966A1, “RXFP1 AGONISTS” (BRISTOL-MYERS SQUIBB COMPANY, priority 2021, published 2025).

One experiment has as its target T1, human RXFP1 (Homo sapiens, UniProt Q9HBX9).
T1 construct: expressed in transfected cells
T1 sequence (Q9HBX9 1-757): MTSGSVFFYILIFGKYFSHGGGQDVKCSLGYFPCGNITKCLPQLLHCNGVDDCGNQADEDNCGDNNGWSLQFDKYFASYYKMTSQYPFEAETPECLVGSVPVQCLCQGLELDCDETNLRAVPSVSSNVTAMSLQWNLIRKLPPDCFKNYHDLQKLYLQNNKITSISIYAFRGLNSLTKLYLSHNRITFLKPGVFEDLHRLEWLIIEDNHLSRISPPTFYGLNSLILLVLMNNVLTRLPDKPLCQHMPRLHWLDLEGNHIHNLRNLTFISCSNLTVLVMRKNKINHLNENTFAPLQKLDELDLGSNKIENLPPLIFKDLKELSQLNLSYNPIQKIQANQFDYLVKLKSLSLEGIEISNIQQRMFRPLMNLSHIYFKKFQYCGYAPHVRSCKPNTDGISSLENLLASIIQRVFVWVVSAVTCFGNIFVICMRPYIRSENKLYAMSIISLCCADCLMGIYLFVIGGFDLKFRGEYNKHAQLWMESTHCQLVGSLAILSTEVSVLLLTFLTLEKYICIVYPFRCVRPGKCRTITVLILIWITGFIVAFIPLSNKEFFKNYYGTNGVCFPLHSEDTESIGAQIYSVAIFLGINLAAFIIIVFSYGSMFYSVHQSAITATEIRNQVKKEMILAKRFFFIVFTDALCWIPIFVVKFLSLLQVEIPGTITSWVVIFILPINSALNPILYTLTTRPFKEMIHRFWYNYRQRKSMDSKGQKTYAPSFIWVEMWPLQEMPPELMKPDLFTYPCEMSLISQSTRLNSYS
The experiment is described as follows: RXFP1 cAMP assay (hRXFP1 HEK293 cAMP assay, HTRF). The class given is cell-based. The conditions noted are these: HEK293 cells stably expressing human RXFP1, 30 min at room temperature, read-out: cAMP hRXFP1 HEK293 Assay EC50. An outline of the steps:
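Intracellular cAMP was read by HTRF, with potency fitted to a 4-parameter logistic curve. Compound exposure (0.010 nM–50 μM final, 2% DMSO) lasted 30 min at room temperature. Cells were hRXFP1-HEK293 at 1500 per well in IBMX-containing (0.5 mM) HEPES-buffered HBSS.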
(In general: cAMP levels reflect the balance of adenylyl cyclase and phosphodiesterase activity.)
For the molecule `COc1ccc(C2=NO[C@@H]3CC[C@H](O)[C@H]23)cc1C(=O)N[C@H]1[C@@H](C(=O)Nc2ccc(F)c(C(F)(F)F)c2)[C@H]2CC[C@@H]1/C2=C\C1CC1` (single isomer, unassigned) [compound 484], the half-maximal effective concentration (EC50) was 7.4 nM. On the same count and under the same terms, the value for `COc1ccc(-c2cc(C(O)C(=O)O)ccc2F)cc1C(=O)NC1C2CCC(/C2=C/CCC(C)(C)C)C1C(=O)Nc1ccc(F)c(C(F)(F)F)c1` (stereo not shown) [compound 354] was 11 nM; that for `COc1ccc(C2=NOC3CC(CO)CC23)cc1C(=O)N[C@H]1[C@@H](C(=O)Nc2ccc(F)c(C(F)(F)F)c2)[C@H]2CC[C@@H]1/C2=C\C(F)(F)F` (stereo partly shown) [compound 478] was 6.5 nM; that for `COc1ccc(C2=NOC3CS(=O)(=O)CC23)cc1C(=O)N[C@@H]1C2CCC(/C2=C/C2CC2)[C@@H]1C(=O)Nc1ccc(F)c(C(F)(F)F)c1` (single isomer, unassigned) [compound 443] was 5 nM. Still for that read-out and setting: the value for `COc1ccc(C2CCCN2CC(C)(C)O)cc1C(=O)N[C@@H]1C2CCC(C2=CC2CC2)[C@@H]1C(=O)Nc1ccc(F)c(C(F)(F)F)c1` (stereo partly shown) [compound 698] was 1010 nM; that for `COc1ccc([C@@H]2CO[C@H]3[C@@H]2OC[C@@H]3O)cc1C(=O)N[C@H]1[C@@H](C(=O)Nc2ccc(F)c(C(F)(F)F)c2)[C@H]2CC[C@@H]1/C2=C\C1CC1` [Example 536, (1R,2S,3R,4R,Z)-7-(cyclopropylmethylene)-N-(4-fluoro-3-(trifluoromethyl)phenyl)-3-(5-((3R,3aR,6S,6aR)-6-hydroxyhexahydrofuro[3,2-b]furan-3-yl)-2-methoxybenzamido)bicyclo[2.2.1]heptane-2-carboxamide] was 24.7 nM. Still for that read-out and setting: the value for `COc1cc(F)c(F)cc1C(=O)N[C@@H]1C2CCC(/C2=C/c2cccc(C#N)c2)[C@@H]1C(=O)Nc1ccc(F)c(C(F)(F)F)c1` (stereo partly shown) [compound 59] was 890 nM. Turning to `COc1ccc(C2=NO[C@@H]3CC[C@@H](O)[C@H]23)cc1C(=O)N[C@H]1[C@@H](C(=O)Nc2ccc(F)c(C(F)(F)F)c2)[C@H]2CC[C@@H]1/C2=C\C1CC1` (single isomer, unassigned) [compound 655], the 50% effective concentration (EC50) is 303 nM.

`COc1ccc(-c2cc(C(=O)O)ccc2F)cc1C(=O)N[C@H]1[C@@H](CNc2ccc(F)c(C(F)(F)F)c2)[C@H]2CC[C@@H]1/C2=C\C1CC1` [Example 258, 3′-(((1R,2R,3R,4R,Z)-7-(cyclopropylmethylene)-3-(((4-fluoro-3-(trifluoromethyl)phenyl)amino)methyl)bicyclo[2.2.1]heptan-2-yl)carbamoyl)-6-fluoro-4′-methoxy-[1,1′-biphenyl]-3-carboxylic acid]: the EC50 worked out at 283 nM. The same measure, in the same setting: the value for `COc1ccc(N2C[C@H](O)CC2=O)cc1C(=O)N[C@H]1[C@@H](C(=O)Nc2ccc(F)c(C(F)(F)F)c2)[C@H]2CC[C@@H]1/C2=C\C1CC1` [compound 639] was 212 nM; that for `COc1ccc(-c2cc(C(OC(C)=O)C(=O)O)ccc2F)cc1C(=O)N[C@@H]1C2CCC(/C2=C/c2cnoc2)[C@@H]1C(=O)Nc1ccc(F)c(C(F)(F)F)c1` (stereo partly shown) [Example 178] was 11 nM.

For `COc1cc(F)c(F)cc1C(=O)N[C@@H]1C2CCC(/C2=C/c2cccc(OCC(F)(F)F)c2)[C@@H]1C(=O)Nc1ccc(F)c(C(F)(F)F)c1` (stereo partly shown) [compound 28], the half-maximal effective concentration (EC50) was 400 nM. On the same count and under the same terms, next, `COc1ccc(-c2cc([C@@H](C)O)on2)cc1C(=O)N[C@H]1[C@@H](C(=O)Nc2ccc(F)c(C(F)(F)F)c2)[C@H]2CC[C@@H]1/C2=C\C1CC1` [compound 500]: 11 nM; `COc1ccc(-c2cc(C(=O)N3CCCC3)ccc2F)cc1C(=O)N[C@@H]1C2CCC(/C2=C/c2cnoc2)[C@@H]1C(=O)Nc1ccc(F)c(C(F)(F)F)c1` (stereo partly shown) [compound 191]: 42 nM. On the same count and under the same terms, next, `COc1ccc(C2=NOC3CC(CO)CC23)cc1C(=O)N[C@H]1[C@@H](C(=O)Nc2ccc(F)c(C(F)(F)F)c2)[C@H]2CC[C@@H]1/C2=C\C(F)(F)F` (stereo partly shown) [compound 533]: 23.4 nM; `COC(=O)N1CC=C(c2ccc(OC)c(C(=O)N[C@@H]3C4CCC(C4=C(C)C)[C@@H]3C(=O)Nc3ccc(F)c(C(F)(F)F)c3)c2)CC1` (stereo partly shown) [compound 143]: 2800 nM. Still for that read-out and setting: the value for `COc1ccc(C2CCCN2C(=O)OC(C)(C)C)cc1C(=O)N[C@@H]1C2CCC(/C2=C/C2CC2)[C@@H]1C(=O)Nc1ccc(F)c(C(F)(F)F)c1` (single isomer, unassigned) [compound 694] was 796 nM. For `COc1ccc(-c2cc(C(NC(=O)C3CCOCC3)C(=O)O)ccc2F)cc1C(=O)N[C@H]1[C@@H](C(=O)Nc2ccc(F)c(C(F)(F)F)c2)[C@H]2CC[C@@H]1/C2=C\C(C)C` (stereo partly shown) [compound 942], the 50% effective concentration (EC50) worked out at 1.3 nM. Still for that read-out and setting: the value for `COc1c(F)cc(C2=NOC3CC(CO)CC23)cc1C(=O)N[C@H]1[C@@H](C(=O)Nc2ccc(F)c(C(F)(F)F)c2)[C@H]2CC[C@@H]1/C2=C\CC(C)C` (stereo partly shown) [compound 796] was 3.7 nM; that for `COc1ccc([C@@H]2CO[C@H]3[C@@H]2OC[C@H]3O)cc1C(=O)N[C@H]1[C@@H](C(=O)Nc2ccc(F)c(C(F)(F)F)c2)[C@H]2CC[C@@H]1/C2=C\C1CC1` [compound 620] was 163 nM. On the same count and under the same terms, the value for `CNC(=O)OC(c1ccc(F)c(-c2ccc(OC)c(C(=O)N[C@@H]3C4CCC(/C4=C/C4CC4)[C@@H]3C(=O)Nc3ccc(F)c(C(F)(F)F)c3)c2)c1)C(F)(F)F` (stereo partly shown) [compound 212] was 1 nM; that for `COc1cc(F)c(F)cc1C(=O)N[C@@H]1[C@@H]2CCC(/C2=C/c2ccoc2)[C@@H]1C(=O)Nc1ccc(F)c(C(F)(F)F)c1` [Example 12] was 410 nM; that for `COc1ccc(C2=NOC(C3(O)CCCC3)C2)cc1C(=O)N[C@H]1[C@@H](C(=O)Nc2ccc(F)c(C(F)(F)F)c2)[C@H]2CC[C@@H]1/C2=C\C1CC1` (single isomer, unassigned) [compound 619] was 156 nM. As to `COc1cc(C2CC2)c(C2=NOC3COCC23)cc1C(=O)N[C@H]1C(C(=O)Nc2ccc(F)c(C(F)(F)F)c2)[C@H]2CC[C@@H]1/C2=C\C1CC1` (single isomer, unassigned) [Example 626], the EC50 stood at 171 nM.

On to `COc1ccc(C2=NOC(C(=O)O)C2)cc1C(=O)N[C@@H]1C2CCC(/C2=C/C(F)(F)F)[C@@H]1C(=O)Nc1ccc(F)c(C(F)(F)F)c1` (stereo partly shown) [compound 389], for which the EC50 was determined as 54 nM. As for `CNC(=O)c1ccc(F)c(-c2ccc(OC)c(C(=O)N[C@@H]3C4CCC(/C4=C/C4CC4)[C@@H]3C(=O)Nc3ccc(F)c(C(F)(F)F)c3)c2)c1` (stereo partly shown) [Example 166], the EC50 is 11 nM. In the case of `COc1ccc(-c2cc(C(C)CC(=O)O)ccc2F)cc1C(=O)N[C@H]1[C@@H](C(=O)Nc2ccc(F)c(C(F)(F)F)c2)[C@H]2CC[C@@H]1/C2=C\C1CC1` (stereo partly shown) [compound 887], the EC50 worked out at 5.5 nM. The same measure, in the same setting: next, `COc1ccc(C2=NOC3CC(C)(CO)CC23)cc1C(=O)N[C@H]1[C@@H](C(=O)Nc2ccc(F)c(C(F)(F)F)c2)[C@H]2CC[C@@H]1/C2=C\C1CCCC1` (stereo partly shown) [compound 749]: 3.3 nM; `COc1ccc(C2=NOC(C)(C(=O)O)C2)cc1C(=O)N[C@@H]1C2CCC(/C2=C/C2CC2)[C@@H]1C(=O)Nc1ccc(F)c(C(F)(F)F)c1` (stereo partly shown) [compound 421]: 831 nM; `COc1ccc(C2=NOC3CN(C(=O)OC(C)(C)C)CC23)cc1C(=O)N[C@H]1[C@@H](C(=O)Nc2ccc(F)c(C(F)(F)F)c2)[C@H]2CC[C@@H]1/C2=C\C1CC1` (mixture of isomers) [Example 434, tert-butyl 3-(3-(((1R,2R,3S,4R,Z)-7-(cyclopropylmethylene)-3-((4-fluoro-3-(trifluoromethyl)phenyl)carbamoyl)bicyclo[2.2.1]heptan-2-yl)carbamoyl)-4-methoxyphenyl)-3a,4,6,6a-tetrahydro-5H-pyrrolo[3,4-d]isoxazole-5-carboxylate]: 24 nM. Same read-out and setting: next, `COc1ccc(-c2cc(C(N)=O)on2)cc1C(=O)N[C@@H]1C2CCC(/C2=C/C2CC2)[C@@H]1C(=O)Nc1ccc(F)c(C(F)(F)F)c1` (stereo partly shown) [compound 426]: 45 nM; `COc1ccc(-c2cccc(C(F)(F)F)n2)cc1C(=O)N[C@@H]1C2CCC(/C2=C/C2CC2)[C@@H]1C(=O)Nc1ccc(F)c(C(F)(F)F)c1` (stereo partly shown) [compound 283]: 69 nM; `COc1ccc(C2=NO[C@H]3C[C@H](CO)CN23)cc1C(=O)N[C@H]1[C@@H](C(=O)Nc2ccc(F)c(C(F)(F)F)c2)[C@H]2CC[C@@H]1/C2=C\C1CC1` [compound 854]: 3.9 nM.

Staying with this experiment, now noted: cAMP hRXFP1 HEK293 Assay EC50, HEK293 cells stably expressing human RXFP1, 30 min at room temperature.
Molecule `COc1ccc(-c2ccc(C(=O)O)cc2)cc1C(=O)N[C@H]1[C@@H](C(=O)Nc2ccc(F)c(C(F)(F)F)c2)[C@H]2CC[C@@H]1C2=C(C)C` [compound 83] returned a concentration for a half-maximal effect (EC50) of 66 nM.

As usually defined, the EC50 is the concentration needed to bring the measured effect to its halfway point.
